Experimental data reported in paper PMC10403574, “Discovery of a pyrrole-pyridinimidazole derivative as novel SIRT6 inhibitor for sensitizing pancreatic cancer to gemcitabine” (Cell Death & Disease, 2023).
pIC50: −log10 of the molar value.

Tests used:
β-TC-6 cells = experiment: Cell glucose uptake assay, β-TC-6; assay type: cell-based; conditions: β-TC-6, 8a (3.125, 6.25, 12.5 μM) + insulin (100 nM) vs insulin only, 30 min
Protocol: The NIT-1 and β-TC-6 cells were added to the wells of 12-well plates and incubated overnight. Then the culture medium without FBS was incubated for 6 h, and different concentrations of 8a (3.125, 6.25, 12.5 μM), insulin (100 nM) or their combination were added for 30 min. Glucose uptake was determined using a Glucose Uptake Assay Kit (Jiancheng, Nanjing).

BXPC-3 cells = experiment: Colony formation assay; assay type: cell-based; conditions: dose-dependent
Protocol: The BXPC-3 cells were plated in six-well plates at 1000 cells per well. After 12 h, different concentrations of 8a, Gemcitabine or their combination were added for 7–10 days. The cells were fixed for 15 min with paraformaldehyde (4%) and then stained with crystal violet (0.1%) for 15 min at room temperature. Surviving colonies consisting of 50 or more cells were counted under microscope.

HDAC1 = HDAC1 (Homo sapiens, UniProt Q13547); experiment: Deacetylation activity selectivity, HDAC1; assay type: biochemical
Sequence of HDAC1 (Q13547 whole entry, species assumed): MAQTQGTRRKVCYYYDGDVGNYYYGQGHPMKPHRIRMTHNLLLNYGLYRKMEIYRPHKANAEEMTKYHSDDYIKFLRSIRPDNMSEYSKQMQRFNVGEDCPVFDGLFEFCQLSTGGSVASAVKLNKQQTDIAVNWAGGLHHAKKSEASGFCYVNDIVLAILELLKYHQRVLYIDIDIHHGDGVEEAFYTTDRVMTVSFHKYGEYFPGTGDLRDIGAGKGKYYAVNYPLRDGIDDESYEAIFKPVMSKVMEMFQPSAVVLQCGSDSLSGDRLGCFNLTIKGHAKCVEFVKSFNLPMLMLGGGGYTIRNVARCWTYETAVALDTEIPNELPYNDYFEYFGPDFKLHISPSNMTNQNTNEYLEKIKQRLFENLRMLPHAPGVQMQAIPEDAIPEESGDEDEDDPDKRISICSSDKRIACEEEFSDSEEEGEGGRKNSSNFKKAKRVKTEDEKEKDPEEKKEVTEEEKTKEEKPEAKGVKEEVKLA
Source text: (§1) Based on the above results, 8a was further investigated in this study. […] To further evaluate the selectivity of 8a for SIRT6, we examined the effect of 8a on the deacetylation activity of other HDAC family members, including HDAC1-HDAC11, SIRT1-SIRT3 and SIRT5. […] Furthermore, to confirm binding of 8a to SIRT6 in cells, we carried out the cellular thermal shift assay (CETSA). The CETSA approach builds on the thermal shift assay concept where ligand binding to its target protein enhances the target protein stability. We observed that the thermal stability of SIRT6 increased after 8a treatment (Figs. 2c, d).

PANC-1 cells = experiment: MTT proliferation assay, PANC-1; assay type: cell-based; conditions: 72 h
Protocol: BXPC-3 and PANC-1 cells were plated in 96-well plates at 5000 cells per well. After 12 h attachment, varying concentrations of 8a were added into the culture medium for 72 h. Then 10 μL MTT (5 mg/ml) solution was added into per well for 4 h at 37 °C. After removing medium, formazan crystals were dissolved in 150 µL DMSO. The cells viability was quantified by measuring the absorbance at 570 nm.

HDAC9 = HDAC9 (Homo sapiens, UniProt Q9UKV0); experiment: Deacetylation activity selectivity, HDAC9; assay type: biochemical
Sequence of HDAC9 (Q9UKV0 whole entry, species assumed): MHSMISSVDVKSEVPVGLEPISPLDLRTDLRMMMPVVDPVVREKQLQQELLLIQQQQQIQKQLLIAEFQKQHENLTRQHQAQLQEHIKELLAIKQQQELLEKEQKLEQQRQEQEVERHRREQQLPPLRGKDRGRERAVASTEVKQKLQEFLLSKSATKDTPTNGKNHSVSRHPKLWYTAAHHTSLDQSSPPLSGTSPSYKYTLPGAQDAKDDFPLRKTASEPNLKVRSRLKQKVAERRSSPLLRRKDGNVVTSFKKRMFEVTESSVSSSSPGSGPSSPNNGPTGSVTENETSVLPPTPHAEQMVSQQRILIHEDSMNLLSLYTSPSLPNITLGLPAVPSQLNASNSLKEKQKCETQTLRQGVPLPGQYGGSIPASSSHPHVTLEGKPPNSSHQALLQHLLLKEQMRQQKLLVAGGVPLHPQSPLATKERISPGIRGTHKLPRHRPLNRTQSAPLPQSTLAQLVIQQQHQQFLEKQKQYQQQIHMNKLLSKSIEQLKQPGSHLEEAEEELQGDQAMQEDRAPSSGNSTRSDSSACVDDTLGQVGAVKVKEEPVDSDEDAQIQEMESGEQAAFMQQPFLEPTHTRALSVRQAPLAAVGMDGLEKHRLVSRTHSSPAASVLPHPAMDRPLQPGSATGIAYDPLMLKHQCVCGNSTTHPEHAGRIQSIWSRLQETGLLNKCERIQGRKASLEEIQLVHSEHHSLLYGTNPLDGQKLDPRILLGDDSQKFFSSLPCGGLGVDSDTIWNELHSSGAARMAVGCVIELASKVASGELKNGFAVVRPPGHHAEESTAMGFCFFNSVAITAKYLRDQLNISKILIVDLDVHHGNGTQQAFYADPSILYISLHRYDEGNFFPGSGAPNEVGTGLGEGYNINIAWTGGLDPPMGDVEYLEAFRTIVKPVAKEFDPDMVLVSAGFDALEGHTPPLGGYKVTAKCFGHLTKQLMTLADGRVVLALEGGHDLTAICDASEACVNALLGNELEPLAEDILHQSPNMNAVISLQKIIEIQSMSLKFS
Source text: as §1

HDAC2 = HDAC2 (Homo sapiens, UniProt Q92769); experiment: Deacetylation activity selectivity, HDAC2; assay type: biochemical
Sequence of HDAC2 (Q92769 whole entry, species assumed): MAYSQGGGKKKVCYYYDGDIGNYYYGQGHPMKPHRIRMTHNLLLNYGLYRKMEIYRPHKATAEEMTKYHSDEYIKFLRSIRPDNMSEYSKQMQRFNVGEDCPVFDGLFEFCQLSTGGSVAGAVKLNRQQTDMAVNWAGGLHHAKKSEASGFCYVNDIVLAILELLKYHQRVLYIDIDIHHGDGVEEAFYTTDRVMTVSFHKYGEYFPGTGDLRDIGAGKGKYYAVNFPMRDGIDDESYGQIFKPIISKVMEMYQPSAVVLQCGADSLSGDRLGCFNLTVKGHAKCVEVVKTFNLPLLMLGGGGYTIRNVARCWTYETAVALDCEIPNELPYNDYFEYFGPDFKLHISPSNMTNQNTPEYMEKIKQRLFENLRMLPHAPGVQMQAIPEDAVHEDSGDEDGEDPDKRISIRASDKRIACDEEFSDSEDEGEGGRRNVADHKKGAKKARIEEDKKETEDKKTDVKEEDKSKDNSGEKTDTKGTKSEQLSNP
Source text: as §1

[1] = Glucose uptake and insulin secretion in vivo; set-up: species or system C57BL/6 mice; conditions: mice, 8a 10, 20, 30 mg/kg i.p. + glucose 2 g/kg vs glucose group; short term and long term (2 weeks)
Protocol: Male C57BL/6 mice (18 ± 2 g, 5 weeks old) were randomly divided into four groups with six mice per group. Acute drug toxicity test was performed. Mice were fasted for 6 h, and basal blood glucose and serum insulin levels were measured by using Accu-Check Performa (Roche, Swiss) glucose meter and Mouse Insulin ELISA kit (Solarbio). Compound 8a (10, 20, 30 mg/kg) was intraperitoneally injected for 10 min, followed by glucose (2 g/kg) intraperitoneally injected. The blood glucose concentration was measured at 30 and 60 min after glucose injection, and the serum insulin content of mice was measured at 60 min. Compound 8a was treated every other day for 2 weeks and tested for chronic drug toxicity. According to the above method, the serum glucose and insulin content of mice were measured.

HDAC5 = HDAC5 (Homo sapiens, UniProt Q9UQL6); experiment: Deacetylation activity selectivity, HDAC5; assay type: biochemical
Sequence of HDAC5 (Q9UQL6 whole entry, species assumed): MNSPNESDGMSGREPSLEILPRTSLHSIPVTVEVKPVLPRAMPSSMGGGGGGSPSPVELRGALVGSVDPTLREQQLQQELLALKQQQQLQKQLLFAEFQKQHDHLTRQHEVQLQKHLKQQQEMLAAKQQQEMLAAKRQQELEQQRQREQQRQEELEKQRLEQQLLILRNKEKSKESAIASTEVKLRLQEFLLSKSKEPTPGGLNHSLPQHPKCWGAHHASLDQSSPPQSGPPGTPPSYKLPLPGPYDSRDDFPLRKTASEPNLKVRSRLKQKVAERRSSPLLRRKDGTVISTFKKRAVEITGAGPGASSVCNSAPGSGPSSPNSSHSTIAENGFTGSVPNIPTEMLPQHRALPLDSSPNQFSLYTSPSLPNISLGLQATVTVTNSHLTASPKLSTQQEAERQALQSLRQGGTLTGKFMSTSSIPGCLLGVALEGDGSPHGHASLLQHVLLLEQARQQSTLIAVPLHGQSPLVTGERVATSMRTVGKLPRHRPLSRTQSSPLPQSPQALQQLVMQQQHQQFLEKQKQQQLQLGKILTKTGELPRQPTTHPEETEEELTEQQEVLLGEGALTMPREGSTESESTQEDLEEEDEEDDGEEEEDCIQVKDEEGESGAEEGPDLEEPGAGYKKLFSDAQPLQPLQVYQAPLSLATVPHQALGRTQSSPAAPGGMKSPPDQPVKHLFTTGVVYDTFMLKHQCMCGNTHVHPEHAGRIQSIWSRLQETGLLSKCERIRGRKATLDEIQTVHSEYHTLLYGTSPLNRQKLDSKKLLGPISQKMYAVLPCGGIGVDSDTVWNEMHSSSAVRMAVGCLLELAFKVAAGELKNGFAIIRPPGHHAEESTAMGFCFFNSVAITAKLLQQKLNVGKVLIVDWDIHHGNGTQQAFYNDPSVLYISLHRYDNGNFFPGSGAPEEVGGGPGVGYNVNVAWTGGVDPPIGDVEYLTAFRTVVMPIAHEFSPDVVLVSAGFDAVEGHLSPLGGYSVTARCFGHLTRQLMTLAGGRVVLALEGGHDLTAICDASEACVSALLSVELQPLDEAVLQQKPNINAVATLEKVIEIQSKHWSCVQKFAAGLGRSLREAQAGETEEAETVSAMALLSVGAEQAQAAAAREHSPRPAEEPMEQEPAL
Source text: as §1

HDAC4 = HDAC4 (Homo sapiens, UniProt P56524); experiment: Deacetylation activity selectivity, HDAC4; assay type: biochemical
Sequence of HDAC4 (P56524 whole entry, species assumed): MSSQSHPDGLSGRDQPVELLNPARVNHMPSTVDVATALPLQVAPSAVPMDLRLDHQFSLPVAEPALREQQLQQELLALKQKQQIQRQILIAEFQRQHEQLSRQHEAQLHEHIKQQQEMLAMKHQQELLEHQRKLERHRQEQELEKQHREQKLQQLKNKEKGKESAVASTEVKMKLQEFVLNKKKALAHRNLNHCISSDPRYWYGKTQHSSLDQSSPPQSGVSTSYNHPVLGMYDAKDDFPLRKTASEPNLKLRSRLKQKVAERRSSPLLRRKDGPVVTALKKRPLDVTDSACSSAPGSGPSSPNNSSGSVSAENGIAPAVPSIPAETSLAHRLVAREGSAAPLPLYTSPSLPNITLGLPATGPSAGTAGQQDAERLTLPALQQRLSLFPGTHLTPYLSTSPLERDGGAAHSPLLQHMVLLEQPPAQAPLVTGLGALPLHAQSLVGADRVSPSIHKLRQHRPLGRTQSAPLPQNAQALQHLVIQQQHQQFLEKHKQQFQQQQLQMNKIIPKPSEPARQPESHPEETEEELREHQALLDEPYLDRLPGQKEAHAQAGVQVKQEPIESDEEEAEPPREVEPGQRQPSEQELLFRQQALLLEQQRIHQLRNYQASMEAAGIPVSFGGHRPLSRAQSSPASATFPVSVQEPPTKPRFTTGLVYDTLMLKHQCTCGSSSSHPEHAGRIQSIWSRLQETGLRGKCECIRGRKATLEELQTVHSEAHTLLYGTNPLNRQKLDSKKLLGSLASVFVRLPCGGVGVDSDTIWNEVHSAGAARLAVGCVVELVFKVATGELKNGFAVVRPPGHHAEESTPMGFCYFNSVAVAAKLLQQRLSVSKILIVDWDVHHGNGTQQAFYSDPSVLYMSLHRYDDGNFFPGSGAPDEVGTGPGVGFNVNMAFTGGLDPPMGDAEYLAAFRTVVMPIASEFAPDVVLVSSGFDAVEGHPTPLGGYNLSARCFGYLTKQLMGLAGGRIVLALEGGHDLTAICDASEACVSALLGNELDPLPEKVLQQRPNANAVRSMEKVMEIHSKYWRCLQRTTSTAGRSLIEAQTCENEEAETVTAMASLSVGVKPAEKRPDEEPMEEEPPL
Source text: as §1

BXPC-3 xenografts = experiment: BXPC-3 tumor xenograft in nude mice; assay type: in vivo, BALB/c nude mice
Protocol: Female BALB/c nude mice (14 ± 2 g, 4 weeks old) were purchase. About 2 × 10^6 of BXPC-3 cells were inoculated into nude mouse flanks. When the tumor volume reached approximately 100 mm^3, mice were randomly divided into four groups with six mice per group before treatment and then treated with vehicle, 8a (20 mg/kg), gemcitabine (10 mg/kg) and their combination every 2 days. Tumor volumes and body weight were measured every 3 days, and use the formula to calculate the tumor volume: V = (L × W × W)/2 (V, tumor volume; L, length; and W, width). Mice were sacrificed and tumor tissues were removed. Tumor tissues were fixed with paraformaldehyde (4%) and embedded with paraffin.
To further confirm whether 8a can enhance the antitumor effects of gemcitabine in vivo, the BXPC-3 PDAC xenografts were used. The mice with tumors received intraperitoneal injection of compound 8a (20 mg/kg), gemcitabine (10 mg/kg), or their combination once every 2 days for 4 weeks. Tumor volumes and body weight of mice were monitored every 3 days.

glucose uptake (β-TC-6 cells): no significant effect
pIC50 (HDAC1): < 3.70
pIC50 (PANC-1 cells): 5.03
pIC50 (HDAC9): < 3.70
pIC50 (HDAC2): < 3.70
blood glucose and insulin concentration [1]: no significant difference
pIC50 (HDAC5): < 3.70
pIC50 (HDAC4): < 3.70
SMILES: Br.CN(C)C(SCCCCCCn1cnc2c(-c3cc(Br)c(Br)[nH]3)nccc21)=[N+](C)C.[Cl-] [Compound 8a]
colony formation (BXPC-3 cells): much smaller and fewer colonies
tumor inhibition (BXPC-3 xenografts; 8a 20 mg/kg i.p. once every 2 days for 4 weeks, vs control mice): 27%
Ac-H3K9 in tumor tissue (BXPC-3 xenografts; western blotting of tumor tissue samples, 8a 20 mg/kg): elevated
